Laboratory results taken from patent US9751867B2 (Syngenta Participations AG, priority 2014, dated 2017).
Where two headings read alike, the source gives them in different places.

Legend:
NK Falkone corn seeds = assay: Corn seed germination under cold stress (15° C.); type: in vivo; details: for change in vivo at 50 µM: rate 50 μM; for change in vivo at 250 µM: rate 250 μM
Method: The effect of compounds of Formula (I) on the germination of NK Falkone corn seeds under cold stress was evaluated as follows.
NK Falkone corn seeds were sorted by size using 2 sieves, one excluding very big seeds and the other with round holes of 8 to 9 mm diameter. The seeds retained by the latter sieve are used for the germination test.
The corn seeds were placed in 24 well plates (each plate is considered as one experimental unit or replicate). Germination is initiated by the addition of 250 μl of distilled water containing 0.5% DMSO per well as a mean for compound solubilization. 8 replicates (ie, 8 plates) were used for each treatment characterization. Plates were sealed using seal foil (Polyolefin Art. Nr. 900320) from HJ-BIOANALYTIK. All plates were placed horizontally on trolleys in a climatic chamber at 15° C. or 23° C. in complete darkness. The experiment is laid out in a completely randomized design in climatic chamber with 75% Relative Humidity. Foils are pierced, one hole per well using a syringe after 72 hours for experiments performed at 15° C. and after 24 hours for experiments performed at 23° C.
Germination is followed over time by taking photographs at different time points. Image analysis is done automatically with a macro developed using the Image J software. A dynamic analysis of germination is carried out by fitting a logistic curve to the relationship between % germination and time for each plate (T50 parameter).
T50 is the time needed for half the seed population to be germinated. A negative value of T50 represents a faster germination rate. The mean of T50 parameters is calculated for the 8 replicates and the kinetic parameter is determined for each germination curve. Data in bold indicate germination enhancing statistically significant differences between treated seeds and control (empty vehicle treated) T50 values (P<0.05) as outlined in Table 7.

[1] = system: Orobanche cumana Wallr. seeds; assay: Orobanche seed germination; type: in vivo; details: preconditioned O. cumana seeds, 10 days at 20° C. in the dark, N = 5 × 100 seeds, control (0.01% DMSO) 0.75% germination
Method: The effect of the compounds of Formula (I) on the germination of Orobanche cumana Wallr. seeds was evaluated on glass fibre filter paper (GFFP) in petri dishes. Seeds were pre-conditioned at moisture and suitable temperature to become responsive to the specific chemical germination stimulants.
Test compounds were dissolved in DMSO (10 000 mgl^−1) and stored at room temperature in a desiccator with desiccants. The stock solutions were dissolved with sterile deionised water to the appropriate final test concentration.
Seeds of O. cumana race ‘F’ were collected from sunflower fields in Manzanilla (Seville, Spain) in 2008 (seed lot IN153) and stored at room temperature. To separate seeds from heavy organic debris, a modified sucrose floatation technique as described by Hartman & Tanimonure (Plant Disease (1991), 75, 494) was applied. Seeds were filled into a separation funnel and stirred in water. When seeds floated to the surface, the water fraction containing heavy debris was discarded. Seeds were re-suspended in 2.5 M sucrose solution (specific gravity of 1.20) and heavy debris was allowed to settle down for 60 minutes. After removing debris, seeds were disinfected in 1% sodium hypochlorite solution and 0.025% (v/v) Tween 20 for 2 minutes. The seeds were decanted onto two layers of cheese cloth, rinsed with sterile deionised water and re-suspended in sterile deionised water. 2 mL of the seed suspension containing approximately 150 to 400 seeds was spread evenly on two layers of sterile glass fiber filter paper disc ([…]) in Petri dishes ( ? 9 cm). After wetting the discs with 3 mL sterile deionised water, petri dishes were sealed with parafilm. Seeds were incubated for 10 days at 20° C. in the dark for seed conditioning. The upper disc with conditioned seeds was briefly dried, transferred to a petri dish lined with a dry GFFP disc, and wetted with 6 mL of the appropriate test solution. The compounds of Formula (I) were tested at concentrations of 0.01, 0.1, and 1 mg/L. The strigolactone analogue GR24 (commercially available as a mixture of isomers) was included as positive control and 0.01% DMSO as negative control. All treatments were tested in five replicates. Seeds were re-incubated at 20° C. in the dark and examined for germination 10 days later.
The radicles of germinated seeds were stained for 5 minutes with blue ink (PELIKAN #4001, Germany) in 5% acetic acid according to Long et al (Seed Science Research (2008), 18, 125). After staining, seeds were photographed using a camera stand mounted with a digital SLR camera (Canon EOS 5D). Germination of 100 seeds per replicate was evaluated on digital images. Seeds were considered germinated when the radicle protruded from the seed coat.

[2] = Zea mays, rate 2 μM, 15° C., negative value = faster germination, control 0.5% DMSO in water, read-out: T50 (% vs control)
[3] = Zea mays, rate 10 μM, 15° C., negative value = faster germination, control 0.5% DMSO in water, read-out: T50 (% vs control)
[4] = Zea mays, 15° C., negative value = faster germination, control 0.5% DMSO in water, read-out: T50 (% vs control)
[5] = Zea mays, rate 1 μM, 15° C., negative value = faster germination, control 0.5% DMSO in water, read-out: T50 (% vs control)
[6] = Zea mays, rate 5 μM, 15° C., negative value = faster germination, control 0.5% DMSO in water, read-out: T50 (% vs control)
[7] = Zea mays, rate 25 μM, 15° C., negative value = faster germination, control 0.5% DMSO in water, read-out: T50 (% vs control)
[8] = Zea mays, read-out: T50 (% vs control)

SMILES	Germination (%) ([1]; 0.01 mg/L)	Germination (%) ([1]; 0.1 mg/L)	change in vivo at 2 µM (NK Falkone corn seeds; [2])	change in vivo at 10 µM (NK Falkone corn seeds; [3])	change in vivo at 50 µM (NK Falkone corn seeds; [4])	change in vivo at 250 µM (NK Falkone corn seeds; [4])	other results
CC1=C[C@H](O/C=C2/C(=O)O[C@@H]3c4ccccc4C[C@H]23)OC1=O [GR-24, reference compound]							T50 (% vs control) (NK Falkone corn seeds; rate 0.08 μM, 15° C., negative value = faster germination, control 0.5% DMSO in water): 0.1 % vs control; T50 (% vs control) (NK Falkone corn seeds; rate 0.4 μM, 15° C., negative value = faster germination, control 0.5% DMSO in water): −2 % vs control; T50 (% vs control) (NK Falkone corn seeds; rate 2 μM, 15° C., negative value = faster germination, control 0.5% DMSO in water): −0.6 % vs control; T50 (% vs control) (NK Falkone corn seeds; rate 10 μM, 15° C., negative value = faster germination, control 0.5% DMSO in water): −2.4 % vs control
CC1=CC(O/C=C2/C(=O)N(C(=O)OC(C)(C)C)C3c4ccccc4CC23)N(CC(F)(F)F)C1=O (centres unmarked) [Ia-7, tert-butyl (3E)-3-[(4-methyl-5-oxo-1-(2,2,2-trifluoroethyl)-2H-pyrrol-2-yl)oxymethylene]-2-oxo-4,8b-dihydro-3aH-indeno[1,2-b]pyrrole-1-carboxylate]	34%	8%					
CC1=CC(O/C=C2/C(=O)NC3c4ccccc4CC23)N(c2ccccc2)C1=O (centres unmarked) [Ib-2, (3E)-3-[(4-methyl-5-oxo-1-phenyl-2H-pyrrol-2-yl)oxymethylene]-1,3a,4,8b-tetrahydroindeno[1,2-b]pyrrol-2-one]			-2.5%	-6.1%	-6.2%		change in vivo at 0.4 µM (NK Falkone corn seeds; Zea mays, rate 0.4 μM, 15° C., negative value = faster germination, control 0.5% DMSO in water, read-out: T50 (% vs control)): -0.4%
CON1C(=O)C(C)=CC1O/C=C1/C(=O)NC2c3ccccc3CC12 (centres unmarked) [Ib-3, (3E)-3-[(4-methyl-5-oxo-1-methoxy-2H-pyrrol-2-yl)oxymethylene]-1,3a,4,8b-tetrahydroindeno[1,2-b]pyrrol-2-one]			-4%	3.4%	-3.8%	-5.5%	
CC1=CC(O/C=C2/C(=O)NC3c4ccccc4CC23)N(C2CC2)C1=O (centres unmarked) [Ib-5, (3E)-3-[(4-methyl-5-oxo-1-cyclopropyl-2H-pyrrol-2-yl)oxymethylene]-1,3a,4,8b-tetrahydroindeno[1,2-b]pyrrol-2-one]	68%	73%	-0.8%	-4.3%	-3.9%	-5.8%	
CC1=CC(O/C=C2/C(=O)NC3c4ccccc4CC23)N(CC(F)(F)F)C1=O (centres unmarked) [Ib-7, (3E)-3-[(4-methyl-5-oxo-1-(2,2,2-trifluoroethyl)-2H-pyrrol-2-yl)oxymethylene]-1,3a,4,8b-tetrahydroindeno[1,2-b]pyrrol-2-one]	46%	26%	1.5%	-3%	-3.3%	-4.5%	
CC1=CC(O/C=C2/C(=O)NC3c4ccccc4CC23)N(c2ccc(F)cc2)C1=O (centres unmarked) [Ib-8, (3E)-3-[(4-methyl-5-oxo-1-(4-fluoro-phenyl)-2H-pyrrol-2-yl)oxymethylene]-1,3a,4,8b-tetrahydroindeno[1,2-b]pyrrol-2-one]							change in vivo at 1 µM (NK Falkone corn seeds; [5]): -2.6%; change in vivo at 5 µM (NK Falkone corn seeds; [6]): -2.8%; change in vivo at 25 µM (NK Falkone corn seeds; [7]): 2%; change in vivo at 125 µM (NK Falkone corn seeds; Zea mays, rate 125 μM, 15° C., negative value = faster germination, control 0.5% DMSO in water, read-out: T50 (% vs control)): -2.3%
CC1=CC(O/C=C2/C(=O)NC3c4ccccc4CC23)N(c2cccc(F)c2)C1=O (centres unmarked) [Ib-9, (3E)-3-[(4-methyl-5-oxo-1-(3-fluoro-phenyl)-2H-pyrrol-2-yl)oxymethylene]-1,3a,4,8b-tetrahydroindeno[1,2-b]pyrrol-2-one]							change in vivo at 0.2 µM (NK Falkone corn seeds; Zea mays, rate 0.2 μM, 15° C., negative value = faster germination, control 0.5% DMSO in water, read-out: T50 (% vs control)): -0.8%; change in vivo at 1 µM (NK Falkone corn seeds; [5]): -4.8%; change in vivo at 5 µM (NK Falkone corn seeds; [6]): -5.6%; change in vivo at 25 µM (NK Falkone corn seeds; [7]): -5.2%
CC1=CC(O/C=C2/C(=O)NC3c4ccccc4CC23)N(c2cc(C(F)(F)F)cc(C(F)(F)F)c2)C1=O (centres unmarked) [Ib-13, (3E)-3-[(4-methyl-5-oxo-1-(3,5-bistrifluoromethyl-phenyl)-2H-pyrrol-2-yl)oxymethylene]-1,3a,4,8b-tetrahydroindeno[1,2-b]pyrrol-2-one]							change in vivo at 0.2 µM (NK Falkone corn seeds; [8]): 1%; change in vivo at 1 µM (NK Falkone corn seeds; [8]): -3.6%; change in vivo at 5 µM (NK Falkone corn seeds; [8]): -3.6%; change in vivo at 25 µM (NK Falkone corn seeds; [8]): -2.7%
